Results published in ChEMBL document CHEMBL5518188, “Discovery of 4-amino-1,6-dihydro-7H-pyrrolo[2,3-d]pyridazin-7-one derivatives as potential receptor-interacting serine/threonine-protein kinase 1 (RIPK1) inhibitors” (Eur J Med Chem, 2024).
The source made the active and inactive calls. The calls are words filed in the database; no cut-off is given here.

Legend:
[1] = Apparent volume of distribution in BALB/c mouse at 10 mg/kg, po; type: ADME, organism-based; details: in vivo
[2] = Metabolic stability in cryopreserved human liver microsome assessed as half life; type: ADME; details: cryopreserved liver microsomes
[3] = test system: HT-29; assay: Anti-necroptosis activity against TSZ-induced human HT-29 cells; type: functional, cell-based
[4] = target: T1, Receptor-interacting serine/threonine-protein kinase 1 (Homo sapiens) (UniProt Q13546); details: HT-29, dose 300.0 nM, time <= 6.0 hrs, TDE = time-dependent effect
T1 sequence (whole entry): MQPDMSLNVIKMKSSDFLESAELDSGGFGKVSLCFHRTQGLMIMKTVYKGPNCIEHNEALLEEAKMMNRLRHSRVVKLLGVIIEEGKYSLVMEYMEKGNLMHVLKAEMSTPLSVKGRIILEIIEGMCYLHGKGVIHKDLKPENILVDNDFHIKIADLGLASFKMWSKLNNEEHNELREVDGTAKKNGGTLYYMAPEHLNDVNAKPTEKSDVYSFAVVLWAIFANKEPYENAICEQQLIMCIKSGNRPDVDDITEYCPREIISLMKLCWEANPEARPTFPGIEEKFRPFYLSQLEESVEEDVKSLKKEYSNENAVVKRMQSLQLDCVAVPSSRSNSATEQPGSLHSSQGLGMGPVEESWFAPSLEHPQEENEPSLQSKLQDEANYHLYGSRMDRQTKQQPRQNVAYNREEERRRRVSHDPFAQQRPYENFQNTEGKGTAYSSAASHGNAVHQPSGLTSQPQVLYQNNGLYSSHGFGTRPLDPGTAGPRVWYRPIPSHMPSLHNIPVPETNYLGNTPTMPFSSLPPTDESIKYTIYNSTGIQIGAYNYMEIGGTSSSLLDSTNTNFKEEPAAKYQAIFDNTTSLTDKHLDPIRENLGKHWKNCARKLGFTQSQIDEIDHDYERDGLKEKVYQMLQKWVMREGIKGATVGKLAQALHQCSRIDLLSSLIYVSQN
Description: Inhibition of RIPK1 phosphorylation in TSZ-induced human HT-29 cells at 300 nM by Western blot analysis

[5] = Selectivity ratio of Kd for binding affinity to RIPK1 (unknown origin) assessed as dissociation constant to Kd for binding affinity to RIPK3 (unknown origin) assessed as dissociation constant
[6] = Clearance in BALB/c mouse at 10 mg/kg, iv; type: ADME, organism-based; details: in vivo
[7] = Oral bioavailability in BALB/c mouse at 10 mg/kg; type: ADME, organism-based; details: BALB/c, in vivo
[8] = Half life in BALB/c mouse at 10 mg/kg, po; type: ADME, organism-based; details: BALB/c, in vivo
[9] = target: BDNF/NT-3 growth factors receptor (Homo sapiens) (UniProt Q16620); assay: Inhibition of TRKB (unknown origin)
[10] = target: T2, Mixed lineage kinase domain-like protein (Homo sapiens, UniProt Q8NB16); assay: Binding affinity to MLKL (unknown origin) assessed as dissociation constant
T2 sequence (Q8NB16 whole entry): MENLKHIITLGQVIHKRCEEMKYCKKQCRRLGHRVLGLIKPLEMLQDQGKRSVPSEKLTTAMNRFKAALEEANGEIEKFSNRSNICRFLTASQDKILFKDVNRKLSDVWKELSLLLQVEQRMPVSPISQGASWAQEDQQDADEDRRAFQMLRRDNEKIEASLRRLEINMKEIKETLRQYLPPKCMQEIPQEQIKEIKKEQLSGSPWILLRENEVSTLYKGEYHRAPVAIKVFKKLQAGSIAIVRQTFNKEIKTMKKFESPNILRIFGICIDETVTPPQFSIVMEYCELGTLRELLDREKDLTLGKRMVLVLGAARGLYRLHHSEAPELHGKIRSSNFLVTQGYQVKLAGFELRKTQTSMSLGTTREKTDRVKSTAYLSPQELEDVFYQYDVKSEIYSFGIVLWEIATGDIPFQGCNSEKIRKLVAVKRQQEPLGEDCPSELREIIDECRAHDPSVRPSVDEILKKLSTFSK

[11] = Apparent volume of distribution in BALB/c mouse at 10 mg/kg, iv; type: ADME, organism-based; details: in vivo, read-out: Vz
[12] = target: T3, Receptor-interacting serine/threonine-protein kinase 1 (Homo sapiens, UniProt Q13546); assay: Binding affinity to RIPK1 (unknown origin) assessed as dissociation constant
T3 sequence (Q13546 whole entry): T1 sequence (whole entry)

[13] = target: Vascular endothelial growth factor receptor 3 (Homo sapiens) (UniProt P35916); assay: Inhibition of FLT4 (unknown origin)
[14] = Tmax in BALB/c mouse at 10 mg/kg, iv; type: ADME, organism-based; details: in vivo
[15] = test system: U-937; assay: Anti-necroptosis activity against TSZ-induced human U-937 cells; type: functional, cell-based
[16] = target: Vascular endothelial growth factor receptor 2 (Homo sapiens) (UniProt P35968); assay: Inhibition of KDR (unknown origin)
[17] = test system: HT-29; assay: Anti-necroptosis activity against TSZ-induced human HT-29 cells by microscopic analysis; type: functional, cell-based
[18] = target: T4, Mixed lineage kinase domain-like protein (Homo sapiens) (UniProt Q8NB16); details: HT-29, dose 300.0 nM, time <= 6.0 hrs, TDE = time-dependent effect
T4 sequence (whole entry): T2 sequence (Q8NB16 whole entry)
Description: Inhibition of MLKL phosphorylation in TSZ-induced human HT-29 cells at 300 nM by Western blot analysis

[19] = target: Receptor-interacting serine/threonine-protein kinase 3 (Homo sapiens, UniProt Q9Y572); details: HT-29, dose 300.0 nM, time <= 6.0 hrs, TDE = time-dependent effect
Description: Inhibition of RIPK3 phosphorylation in TSZ-induced human HT-29 cells at 300 nM by Western blot analysis

[20] = target: Vascular endothelial growth factor receptor 1 (Homo sapiens) (UniProt P17948); assay: Inhibition of FLT1 (unknown origin)
[21] = target: T1, Receptor-interacting serine/threonine-protein kinase 1 (Homo sapiens); details: HT-29, dose 3.0 nM, time 6.0 hrs

Sequence of Vascular endothelial growth factor receptor 3 (Homo sapiens) (P35916 whole entry): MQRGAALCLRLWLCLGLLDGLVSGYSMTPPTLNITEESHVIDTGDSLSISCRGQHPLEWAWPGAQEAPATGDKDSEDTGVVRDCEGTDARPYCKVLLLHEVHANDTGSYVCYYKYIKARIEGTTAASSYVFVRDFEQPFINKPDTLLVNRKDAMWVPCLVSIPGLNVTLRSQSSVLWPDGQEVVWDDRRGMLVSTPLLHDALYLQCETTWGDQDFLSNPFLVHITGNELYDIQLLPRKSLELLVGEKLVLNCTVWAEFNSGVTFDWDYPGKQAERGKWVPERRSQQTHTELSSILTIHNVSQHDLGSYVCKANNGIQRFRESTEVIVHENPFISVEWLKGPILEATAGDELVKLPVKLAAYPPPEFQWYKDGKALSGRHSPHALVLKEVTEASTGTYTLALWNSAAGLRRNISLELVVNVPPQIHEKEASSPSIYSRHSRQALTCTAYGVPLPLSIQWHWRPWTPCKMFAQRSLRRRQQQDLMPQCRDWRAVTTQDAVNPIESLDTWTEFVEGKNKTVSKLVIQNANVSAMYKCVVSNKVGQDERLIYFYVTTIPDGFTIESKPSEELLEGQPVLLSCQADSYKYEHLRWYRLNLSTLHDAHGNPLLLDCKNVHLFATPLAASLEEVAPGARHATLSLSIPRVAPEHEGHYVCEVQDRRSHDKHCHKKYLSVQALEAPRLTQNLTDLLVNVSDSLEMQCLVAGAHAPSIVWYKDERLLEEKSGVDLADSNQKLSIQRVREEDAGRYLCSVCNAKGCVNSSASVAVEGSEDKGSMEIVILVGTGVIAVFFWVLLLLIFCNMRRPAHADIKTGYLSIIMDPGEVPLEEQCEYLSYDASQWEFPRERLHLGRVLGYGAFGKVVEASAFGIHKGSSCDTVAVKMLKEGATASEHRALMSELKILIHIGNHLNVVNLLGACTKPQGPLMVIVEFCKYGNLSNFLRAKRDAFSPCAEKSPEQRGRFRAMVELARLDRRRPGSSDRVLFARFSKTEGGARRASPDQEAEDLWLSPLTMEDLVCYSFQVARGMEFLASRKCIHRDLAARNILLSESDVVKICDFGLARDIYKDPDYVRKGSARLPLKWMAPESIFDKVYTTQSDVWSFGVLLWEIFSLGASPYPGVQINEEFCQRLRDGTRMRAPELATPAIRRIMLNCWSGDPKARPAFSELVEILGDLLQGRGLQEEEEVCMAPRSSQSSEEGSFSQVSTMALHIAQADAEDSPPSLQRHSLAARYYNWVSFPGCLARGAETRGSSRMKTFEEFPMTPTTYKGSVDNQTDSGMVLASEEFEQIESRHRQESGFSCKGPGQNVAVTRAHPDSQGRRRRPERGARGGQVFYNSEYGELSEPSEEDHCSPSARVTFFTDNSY
Sequence of BDNF/NT-3 growth factors receptor (Homo sapiens) (Q16620 32-822 limits assumed): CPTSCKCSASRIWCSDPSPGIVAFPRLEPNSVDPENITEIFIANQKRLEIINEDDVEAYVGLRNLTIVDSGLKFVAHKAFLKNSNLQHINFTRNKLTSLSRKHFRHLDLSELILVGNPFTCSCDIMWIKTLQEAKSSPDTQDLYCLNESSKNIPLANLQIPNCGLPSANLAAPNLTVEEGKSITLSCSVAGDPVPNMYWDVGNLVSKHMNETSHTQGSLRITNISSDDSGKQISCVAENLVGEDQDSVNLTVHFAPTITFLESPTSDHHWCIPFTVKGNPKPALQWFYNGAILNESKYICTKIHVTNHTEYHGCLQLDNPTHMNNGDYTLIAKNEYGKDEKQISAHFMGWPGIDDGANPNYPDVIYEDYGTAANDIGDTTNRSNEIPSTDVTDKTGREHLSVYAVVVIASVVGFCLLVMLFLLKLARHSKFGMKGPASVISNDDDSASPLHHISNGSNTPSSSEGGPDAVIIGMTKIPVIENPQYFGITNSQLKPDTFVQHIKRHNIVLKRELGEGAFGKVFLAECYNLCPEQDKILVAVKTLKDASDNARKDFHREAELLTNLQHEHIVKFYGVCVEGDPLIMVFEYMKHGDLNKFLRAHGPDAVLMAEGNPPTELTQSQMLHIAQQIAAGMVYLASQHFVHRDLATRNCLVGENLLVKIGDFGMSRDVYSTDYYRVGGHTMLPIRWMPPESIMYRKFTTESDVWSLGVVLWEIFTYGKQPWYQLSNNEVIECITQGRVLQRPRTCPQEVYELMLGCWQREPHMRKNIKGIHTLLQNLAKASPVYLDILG
Sequence of Vascular endothelial growth factor receptor 2 (Homo sapiens) (P35968 whole entry): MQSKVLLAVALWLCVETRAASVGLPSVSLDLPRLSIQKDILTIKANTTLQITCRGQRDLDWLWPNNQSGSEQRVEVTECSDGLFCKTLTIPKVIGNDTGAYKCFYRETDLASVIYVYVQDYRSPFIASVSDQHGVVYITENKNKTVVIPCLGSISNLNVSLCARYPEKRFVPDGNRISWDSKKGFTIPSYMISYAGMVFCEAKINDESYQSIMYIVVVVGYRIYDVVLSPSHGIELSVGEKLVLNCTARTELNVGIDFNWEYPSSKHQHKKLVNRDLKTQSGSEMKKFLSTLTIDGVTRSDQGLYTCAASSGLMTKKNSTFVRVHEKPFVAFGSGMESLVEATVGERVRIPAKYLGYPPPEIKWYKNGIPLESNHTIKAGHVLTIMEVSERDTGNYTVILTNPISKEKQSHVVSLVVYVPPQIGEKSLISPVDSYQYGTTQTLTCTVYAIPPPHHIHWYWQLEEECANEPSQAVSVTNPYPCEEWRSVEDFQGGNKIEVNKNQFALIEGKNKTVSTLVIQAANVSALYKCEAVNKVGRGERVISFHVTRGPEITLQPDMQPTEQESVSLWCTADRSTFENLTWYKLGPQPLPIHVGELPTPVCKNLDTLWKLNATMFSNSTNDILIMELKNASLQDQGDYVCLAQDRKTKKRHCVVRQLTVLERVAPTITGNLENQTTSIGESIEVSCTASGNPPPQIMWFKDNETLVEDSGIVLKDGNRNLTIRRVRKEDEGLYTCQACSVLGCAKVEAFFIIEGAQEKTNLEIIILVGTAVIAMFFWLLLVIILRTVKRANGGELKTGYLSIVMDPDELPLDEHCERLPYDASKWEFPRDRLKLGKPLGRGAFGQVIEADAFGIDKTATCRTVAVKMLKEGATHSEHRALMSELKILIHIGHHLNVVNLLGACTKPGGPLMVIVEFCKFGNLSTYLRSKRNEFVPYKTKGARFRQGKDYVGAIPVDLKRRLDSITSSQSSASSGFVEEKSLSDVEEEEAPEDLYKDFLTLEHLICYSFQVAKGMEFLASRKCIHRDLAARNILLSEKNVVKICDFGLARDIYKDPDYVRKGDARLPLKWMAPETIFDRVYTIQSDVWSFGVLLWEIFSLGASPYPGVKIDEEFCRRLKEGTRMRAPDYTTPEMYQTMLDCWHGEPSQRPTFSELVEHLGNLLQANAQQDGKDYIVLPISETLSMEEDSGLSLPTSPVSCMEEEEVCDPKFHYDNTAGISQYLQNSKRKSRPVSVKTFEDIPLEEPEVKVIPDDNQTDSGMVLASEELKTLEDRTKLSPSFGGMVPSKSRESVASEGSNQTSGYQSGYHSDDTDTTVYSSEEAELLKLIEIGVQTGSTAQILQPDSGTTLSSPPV
Sequence of Receptor-interacting serine/threonine-protein kinase 3 (Q9Y572 whole entry, looked up): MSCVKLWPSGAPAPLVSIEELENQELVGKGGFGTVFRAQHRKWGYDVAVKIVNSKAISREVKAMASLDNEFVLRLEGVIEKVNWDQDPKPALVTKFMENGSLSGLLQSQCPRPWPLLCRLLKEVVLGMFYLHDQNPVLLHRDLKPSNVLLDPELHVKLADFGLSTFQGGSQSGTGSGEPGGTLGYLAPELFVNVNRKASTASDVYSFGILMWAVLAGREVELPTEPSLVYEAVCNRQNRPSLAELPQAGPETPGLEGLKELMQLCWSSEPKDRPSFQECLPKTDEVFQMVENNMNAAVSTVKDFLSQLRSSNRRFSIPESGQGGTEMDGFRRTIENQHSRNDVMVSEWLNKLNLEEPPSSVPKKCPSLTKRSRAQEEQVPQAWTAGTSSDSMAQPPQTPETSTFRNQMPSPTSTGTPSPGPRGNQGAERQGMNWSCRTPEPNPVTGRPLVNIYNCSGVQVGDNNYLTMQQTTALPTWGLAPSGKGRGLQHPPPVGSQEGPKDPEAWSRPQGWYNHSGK

CC1(Cn2cc(-c3ccc4c(c3)CCN4C(=O)Cc3cccc(OC(F)(F)F)c3)c3c(N)n[nH]c(=O)c32)COC1
Vz [1]: 1.24 L/kg | half-life [2]: 1.26 h | EC50 [3]: 4.58 nM | inhibition [4]: Tde | Selectivity ratio [5]: 486 | clearance [6]: 17.3 mL/min/kg | bioavailability [7]: 59.5% | half-life [8]: 1.04 h | inhibition [9]: Active | Kd [10]: > 30000 nM | Vd [11]: 1.24 L/kg | Kd [12]: 3.5 nM | inhibition [13]: Active | Tmax [14]: 4.8 min | EC50 [15]: 3.09 nM | inhibition [16]: Active | Activity [17]: Active | inhibition [18]: Tde | inhibition [19]: Tde | inhibition [20]: Active | inhibition [21]: Dose-Dependent Effect
